These results are taken from ChEMBL document CHEMBL4334434, “Discovery of napabucasin derivatives for the treatment of tuberculosis” (2019).

Converted amounts (≈) assume the structure as drawn. Bounds are passed on as bounds.

Format in all cases: functional
Test [1] concerns Mycobacterium tuberculosis. Description: Antimycobacterial activity against Mycobacterium tuberculosis H37Ra UAlRa incubated for 6 days by luminescence based assay. As to conditions: 144 h.
Test [2] concerns Mycobacterium tuberculosis. Nature of the test: Antimycobacterial activity against Mycobacterium tuberculosis K16.
Test [3] has as its system Mycobacterium tuberculosis. Nature of the test: Antimycobacterial activity against Mycobacterium tuberculosis K18.
Test [4] deals with Mycobacterium tuberculosis. Description: Antimycobacterial activity against Mycobacterium tuberculosis K2.
The test system of test [5] is Mycobacterium tuberculosis. Description: Antimycobacterial activity against Mycobacterium tuberculosis K5.
Test [6] relates to Mycobacterium tuberculosis. Description: Antimycobacterial activity against Mycobacterium tuberculosis K12.
The test system of test [7] is Mycobacterium tuberculosis. Description: Antimycobacterial activity against Mycobacterium tuberculosis H37Rv.
Test [8] has as its system Mycobacterium tuberculosis. Nature of the test: Antimycobacterial activity against Mycobacterium tuberculosis K4.

What is called MIC is the least concentration at which growth counts as inhibited. Higher therefore signals weaker potency. As for `CC(O)c1cc2c(o1)C(=O)c1ccccc1C2=O` (configuration not stated), inhibition of growth in test [1] (MIC) required 41.2 µM (≈ 9.98 µg/mL).

`CC(c1cc2c(o1)C(=O)c1ccccc1C2=O)N1CCCCC1` (configuration not stated): in test [1], 32.3 µM (≈ 9.99 µg/mL) was the least that counted as inhibitory (MIC).

As to `CC(c1cc2c(o1)C(=O)c1ccccc1C2=O)N1CCOCC1` (configuration not stated), inhibition of growth in test [1] (MIC) required 32.1 µM (≈ 9.99 µg/mL).

With `CC(Br)c1cc2c(o1)C(=O)c1ccccc1C2=O` (configuration not stated), the MIC in test [1] was found to be 16.5 µM (≈ 5.03 µg/mL). Against the preceding compound, the MIC is about 1.9-fold lower.

The compound `COC(=O)CC1CCN(C(=O)c2cc3c(o2)C(=O)c2ccccc2C3=O)CC1` had an MIC in test [1] of 3.28 µM (≈ 1.25 µg/mL). This MIC is about 5-fold lower than that of the compound before.

`O=C(NCCN1CCOCC1)c1cc2c(o1)C(=O)c1ccccc1C2=O`: 7.1 µM (≈ 2.52 µg/mL) was the least that counted as inhibitory in test [1] (MIC).

Turning to `O=C(NC1CCCCC1)c1cc2c(o1)C(=O)c1ccccc1C2=O`, the MIC in test [1] worked out at 7.7 µM (≈ 2.49 µg/mL).

Compound `CCN1CCN(C(=O)c2cc3c(o2)C(=O)c2ccccc2C3=O)CC1` yielded an MIC in test [1] of 7.4 µM (≈ 2.5 µg/mL).

For the compound `O=C1c2ccccc2C(=O)c2oc(C(=O)N3CCC(c4cccc(Cl)c4)CC3)cc21`, the MIC in test [1] is at least 23.9 µM.

Take `O=C(NCCc1ccccc1)c1cc2c(o1)C(=O)c1ccccc1C2=O`: the MIC in test [1] is at least 28.9 µM.

On to `O=C(NCCc1ccccc1F)c1cc2c(o1)C(=O)c1ccccc1C2=O`, for which the MIC in test [2] came out at 2.5 µg/mL (≈ 6.88 µM); in test [3], 2.5 µg/mL (≈ 6.88 µM); in test [4], 0.5 µg/mL (≈ 1.38 µM); in test [5] it was 12.5 µg/mL (≈ 34.4 µM); in test [6], 2.5 µg/mL (≈ 6.88 µM); in test [7], 0.5 µg/mL (≈ 1.38 µM). In addition, the MIC was determined as 1.7 µM (≈ 0.618 µg/mL) in test [1] and 12.5 µg/mL (≈ 34.4 µM) in test [8].

`O=C(NCCc1ccc(F)cc1)c1cc2c(o1)C(=O)c1ccccc1C2=O` gave an MIC in test [1] of 1.7 µM (≈ 0.618 µg/mL).

As for `O=C1c2ccccc2C(=O)c2oc(C(=O)N3CCN(c4cccc(C(F)(F)F)c4)CC3)cc21`, the MIC stood at 1 µg/mL (≈ 2.2 µM) in test [2]; 2.5 µg/mL (≈ 5.5 µM) in test [3]; 0.5 µg/mL (≈ 1.1 µM) in test [4]; 25 µg/mL (≈ 55 µM) in test [5]; 1 µg/mL (≈ 2.2 µM) in test [6]; 1 µg/mL (≈ 2.2 µM) in test [7]. The MIC in test [1] was 2.7 µM (≈ 1.23 µg/mL); in test [8] it was 25 µg/mL (≈ 55 µM).

On to `O=C1c2ccccc2C(=O)c2oc(C(=O)N3CCCCC3)cc21`, for which the MIC in test [2] is 1 µg/mL (≈ 3.23 µM); in test [3] it was 2.5 µg/mL (≈ 8.08 µM); in test [4], 0.5 µg/mL (≈ 1.62 µM); in test [5], 12.5 µg/mL (≈ 40.4 µM); in test [6], 1 µg/mL (≈ 3.23 µM); in test [7], 0.5 µg/mL (≈ 1.62 µM). In addition, the results for the MIC in test [1] and in test [8] were 2 µM (≈ 0.619 µg/mL) and 12.5 µg/mL (≈ 40.4 µM), respectively.

Take `O=C1c2ccccc2C(=O)c2oc(C(=O)N3CCC(c4ccc(F)cc4)CC3)cc21`: the MIC in test [1] was at least 24.9 µM.

In the case of `O=C1c2ccccc2C(=O)c2oc(C(=O)N3CCOCC3)cc21`, the MIC in test [1] was 4 µM (≈ 1.25 µg/mL). In other words, the single-digit micromolar range.

On to `O=C1c2ccccc2C(=O)c2oc(C(=O)N3CCCC3)cc21`, for which, in test [1], 4.2 µM (≈ 1.24 µg/mL) was the least that counted as inhibitory (MIC).

Compound `O=C(NCc1ccccc1F)c1cc2c(o1)C(=O)c1ccccc1C2=O` returned an MIC in test [1] of 1.8 µM (≈ 0.629 µg/mL).

In turn, `O=C(/C=C/c1ccccc1)c1cc2c(o1)C(=O)c1ccccc1C2=O` showed a minimal inhibitory concentration (MIC) in test [1] of at least 30.4 µM.

In test [1], `O=C(NCCc1ccc(Cl)cc1)c1cc2c(o1)C(=O)c1ccccc1C2=O` came in with an MIC of 6.6 µM (≈ 2.51 µg/mL).

With `O=C(NCc1cccc(F)c1)c1cc2c(o1)C(=O)c1ccccc1C2=O`, inhibition of growth in test [1] (MIC) required 0.9 µM (≈ 0.314 µg/mL).

Compound `CN1CCN(C(=O)c2cc3c(o2)C(=O)c2ccccc2C3=O)CC1` had an MIC in test [1] of 7.7 µM (≈ 2.5 µg/mL).

Regarding `O=C1c2ccccc2C(=O)c2oc(C(=O)N3CCSCC3)cc21`, the MIC in test [2] amounted to 0.5 µg/mL (≈ 1.53 µM); in test [3] it was 0.5 µg/mL (≈ 1.53 µM); in test [4], 0.25 µg/mL (≈ 0.764 µM); in test [5] it was 4 µg/mL (≈ 12.2 µM); in test [6] it was 0.5 µg/mL (≈ 1.53 µM); in test [7], 0.5 µg/mL (≈ 1.53 µM). In addition, the figures for the MIC in test [1] and in test [8] were 1.9 µM (≈ 0.622 µg/mL) and 2 µg/mL (≈ 6.11 µM), respectively.

Turning to `O=C(/C=C/c1cccs1)c1cc2c(o1)C(=O)c1ccccc1C2=O`, the MIC in test [1] is 29.9 µM (≈ 10 µg/mL).

On to `O=C1CCN(C(=O)c2cc3c(o2)C(=O)c2ccccc2C3=O)CC1`, for which the lowest concentration to inhibit growth in test [1] (MIC) was 7.7 µM (≈ 2.49 µg/mL).

Regarding `Cn1cccc1/C=C/C(=O)c1cc2c(o1)C(=O)c1ccccc1C2=O`, the MIC in test [1] was at least 30.4 µM.

For the compound `O=C(NCCN1CCCCC1)c1cc2c(o1)C(=O)c1ccccc1C2=O`, 3.6 µM (≈ 1.27 µg/mL) was the least that counted as inhibitory in test [1] (MIC).

Regarding `O=C(NCCc1cccc(F)c1)c1cc2c(o1)C(=O)c1ccccc1C2=O`, the MIC in test [1] is 0.9 µM (≈ 0.327 µg/mL).

With `CC1(C)CCC(NC(=O)c2cc3c(o2)C(=O)c2ccccc2C3=O)CC1`, the MIC in test [2] came out at 2.5 µg/mL (≈ 7.11 µM); in test [3] it was 2.5 µg/mL (≈ 7.11 µM); in test [4], 0.25 µg/mL (≈ 0.711 µM); in test [5], 25 µg/mL (≈ 71.1 µM); in test [6] it was 2.5 µg/mL (≈ 7.11 µM); in test [7], 0.5 µg/mL (≈ 1.42 µM). For the same compound, the MIC in test [1] is 3.56 µM (≈ 1.25 µg/mL); in test [8], 25 µg/mL (≈ 71.1 µM).

The compound `O=C(NCc1ccc(F)cc1)c1cc2c(o1)C(=O)c1ccccc1C2=O` registered an MIC in test [1] of 1.8 µM (≈ 0.629 µg/mL).

In test [1], `O=C(/C=C/c1ccc(O)cc1)c1cc2c(o1)C(=O)c1ccccc1C2=O` came in with an MIC of at least 29.1 µM.

As for `CC(=O)c1cc2c(o1)C(=O)c1ccccc1C2=O` [NAPABUCASIN], inhibition of growth in test [1] (MIC) required 10.4 µM (≈ 2.5 µg/mL).
